From patent US6046171A, “6,11-bridged erythromycin derivatives” (priority 1998, dated 2000)
Converted amounts (≈) assume the structure as drawn.

Tests used:
Format in all cases: cell-based
[1] = test system: Staphylococcus aureus ATCC 6538P; experiment: in vitro antibacterial MIC, agar dilution (BHI agar, Steers replicator); settings: organism code AA; 35-37° C., 20 to 24 hours; unit assumed
Protocol: (§1) Representative compounds of the present invention were assayed in vitro for antibacterial activity as follows: Twelve petri dishes containing successive aqueous dilutions of the test compound mixed with 10 mL of sterilized Brain Heart Infusion (BHI) agar (Difco 0418-01-5) were prepared. Each plate was inoculated with 1:100 (or 1:10 for slow-growing strains, such as Micrococcus and Streptococcus) dilutions of up to 32 different microorganisms, using a Steers replicator block. […] In addition, a control plate, using BHI agar containing no test compound, was prepared and incubated at the beginning and end of each test.
(§2) An additional plate containing a compound having known susceptibility patterns for the organisms being tested and belonging to the same antibiotic class as the test compound was also prepared and incubated as a further control, as well as to provide test-to-test comparability.
(§3) After incubation, each plate was visually inspected. The minimum inhibitory concentration (MIC) was defined as the lowest concentration of drug yielding no growth, a slight haze, or sparsely isolated colonies on the inoculum spot as compared to the growth control.

[2] = test system: Enterococcus faecium ATCC 8Q43; experiment: in vitro antibacterial MIC, agar dilution; settings: organism code II; 35-37° C., 20 to 24 hours; unit assumed
Protocol: as §1, §2, §3

[3] = test system: Escherichia coli DC-2; experiment: in vitro antibacterial MIC, agar dilution; settings: organism code SS; 35-37° C., 20 to 24 hours; unit assumed
Protocol: as §1, §2, §3

[4] = test system: Escherichia coli JUHL; experiment: in vitro antibacterial MIC, agar dilution; settings: organism code QQ; 35-37° C., 20 to 24 hours; unit assumed
Protocol: as §1, §2, §3

[5] = test system: Escherichia coli SS; experiment: in vitro antibacterial MIC, agar dilution; settings: organism code RR; 35-37° C., 20 to 24 hours; unit assumed
Protocol: as §1, §2, §3

[6] = test system: Haemophilis Influenzae DILL AMP R; experiment: in vitro antibacterial MIC, agar dilution; settings: organism code WW; 35-37° C., 20 to 24 hours; unit assumed
Protocol: as §1, §2, §3

[7] = test system: Micrococcus luteus ATCC 4698; experiment: in vitro antibacterial MIC, agar dilution; settings: organism code PP; 35-37° C., 20 to 24 hours; unit assumed
Protocol: as §1, §2, §3

[8] = test system: Micrococcus luteus ATCC 9341; experiment: in vitro antibacterial MIC, agar dilution; settings: organism code OO; 35-37° C., 20 to 24 hours; unit assumed
Protocol: as §1, §2, §3

[9] = test system: Mycobacterium smegmatis ATCC 114; experiment: in vitro antibacterial MIC, agar dilution; settings: organism code UU; 35-37° C., 20 to 24 hours; unit assumed
Protocol: as §1, §2, §3

[10] = test system: Nocardia Asteroides ATCC9970; experiment: in vitro antibacterial MIC, agar dilution; settings: organism code VV; 35-37° C., 20 to 24 hours; unit assumed
Protocol: as §1, §2, §3

[11] = test system: Staphylococcus aureus 1775; experiment: in vitro antibacterial MIC, agar dilution; settings: organism code GG; 35-37° C., 20 to 24 hours; unit assumed
Protocol: as §1, §2, §3

[12] = test system: Staphylococcus aureus A-5278; experiment: in vitro antibacterial MIC, agar dilution; settings: organism code CC; 35-37° C., 20 to 24 hours; unit assumed
Protocol: as §1, §2, §3

[13] = test system: Staphylococcus aureus A5177; experiment: in vitro antibacterial MIC, agar dilution; settings: organism code BB; 35-37° C., 20 to 24 hours; unit assumed
Protocol: as §1, §2, §3

[14] = test system: Staphylococcus aureus CMX 553; experiment: in vitro antibacterial MIC, agar dilution; settings: organism code FF; 35-37° C., 20 to 24 hours; unit assumed
Protocol: as §1, §2, §3

[15] = test system: Staphylococcus aureus CMX 642A; experiment: in vitro antibacterial MIC, agar dilution; settings: organism code DD; 35-37° C., 20 to 24 hours; unit assumed
Protocol: as §1, §2, §3

[16] = test system: Staphylococcus aureus NCTC10649M; experiment: in vitro antibacterial MIC, agar dilution; settings: organism code EE; 35-37° C., 20 to 24 hours; unit assumed
Protocol: as §1, §2, §3

[17] = test system: Staphylococcus epidermidis 3519; experiment: in vitro antibacterial MIC, agar dilution; settings: organism code HH; 35-37° C., 20 to 24 hours; unit assumed
Protocol: as §1, §2, §3

[18] = test system: Streptococcus Pheumoniae 5649; experiment: in vitro antibacterial MIC, agar dilution; settings: organism code ZZA; 35-37° C., 20 to 24 hours; unit assumed
Protocol: as §1, §2, §3

[19] = test system: Streptococcus Pheumoniae 5979; experiment: in vitro antibacterial MIC, agar dilution; settings: organism code ZZ; 35-37° C., 20 to 24 hours; unit assumed
Protocol: as §1, §2, §3

[20] = test system: Streptococcus Pheumoniae ATCC6303; experiment: in vitro antibacterial MIC, agar dilution; settings: organism code XX; 35-37° C., 20 to 24 hours; unit assumed
Protocol: as §1, §2, §3

[21] = test system: Streptococcus Pheumoniae GYR 1171; experiment: in vitro antibacterial MIC, agar dilution; settings: organism code YY; 35-37° C., 20 to 24 hours; unit assumed
Protocol: as §1, §2, §3

[22] = test system: Streptococcus agalactiae CMX 508; experiment: in vitro antibacterial MIC, agar dilution; settings: organism code KK; 35-37° C., 20 to 24 hours; unit assumed
Protocol: as §1, §2, §3

[23] = test system: Streptococcus bovis A-5169; experiment: in vitro antibacterial MIC, agar dilution; settings: organism code JJ; 35-37° C., 20 to 24 hours; unit assumed
Protocol: as §1, §2, §3

[24] = test system: Streptococcus pyogenes 930; experiment: in vitro antibacterial MIC, agar dilution; settings: organism code MM; 35-37° C., 20 to 24 hours; unit assumed
Protocol: as §1, §2, §3

[25] = test system: Streptococcus pyogenes EES61; experiment: in vitro antibacterial MIC, agar dilution; settings: organism code LL; 35-37° C., 20 to 24 hours; unit assumed
Protocol: as §1, §2, §3

[26] = test system: Streptococcus pyogenes PIU 2548; experiment: in vitro antibacterial MIC, agar dilution; settings: organism code NN; 35-37° C., 20 to 24 hours; unit assumed
Protocol: as §1, §2, §3

[27] = test system: Candida albicans CCH 442; experiment: in vitro MIC, agar dilution; settings: organism code TT; 35-37° C., 20 to 24 hours; unit assumed
Protocol: as §1, §2, §3

Row | SMILES | MIC [1] | MIC [2] | MIC [3] | MIC [4] | MIC [5] | MIC [6] | MIC [7] | MIC [8] | MIC [9] | MIC [10] | MIC [13] | MIC [14] | MIC [15] | MIC [16] | MIC [18] | MIC [19] | MIC [20] | MIC [22] | MIC [23] | MIC [25] | other results
1 | CC[C@H]1OC(=O)[C@H](C)[C@@H](O[C@H]2C[C@@](C)(OC)[C@@H](O)[C@H](C)O2)[C@H](C)[C@@H](O[C@@H]2O[C@H](C)C[C@H](N(C)C)[C@H]2O)[C@@]2(C)C[C@@H](C)C(=O)[C@H](C)[C@H]3N(CC=CCO2)C(=O)O[C@]13C [Example 14] | 0.2 µg/mL (≈ 0.247 µM) | 0.1 µg/mL (≈ 0.123 µM) | > 100 µg/mL | 50 µg/mL (≈ 61.7 µM) | 0.78 µg/mL (≈ 0.962 µM) | 8 µg/mL (≈ 9.86 µM) | 0.39 µg/mL (≈ 0.481 µM) | 0.05 µg/mL (≈ 0.0617 µM) | 0.78 µg/mL (≈ 0.962 µM) | 0.05 µg/mL (≈ 0.0617 µM) | 3.1 µg/mL (≈ 3.82 µM) | 0.2 µg/mL (≈ 0.247 µM) | 0.2 µg/mL (≈ 0.247 µM) | 0.39 µg/mL (≈ 0.481 µM) | 16 µg/mL (≈ 19.7 µM) | > 128 µg/mL | 0.03 µg/mL (≈ 0.037 µM) | 0.05 µg/mL (≈ 0.0617 µM) | 0.05 µg/mL (≈ 0.0617 µM) | 0.05 µg/mL (≈ 0.0617 µM) | MIC [11]: > 100 µg/mL; MIC [12]: > 100 µg/mL; MIC [17]: 0.2 µg/mL (≈ 0.247 µM); MIC [21]: 0.03 µg/mL (≈ 0.037 µM); MIC [24]: > 100 µg/mL; MIC [26]: 6.2 µg/mL (≈ 7.64 µM); MIC [27]: > 100 µg/mL
2 | CC[C@H]1OC(=O)[C@H](C)C(=O)[C@H](C)[C@@H](O[C@@H]2O[C@H](C)C[C@H](N(C)C)[C@H]2O)[C@@]2(C)C[C@@H](C)C(=O)[C@H](C)[C@H]3N(CCC=CCO2)C(=O)O[C@]13C [Example 18] | 0.78 µg/mL (≈ 1.17 µM) | 0.39 µg/mL (≈ 0.587 µM) | – | – | – | 128 µg/mL (≈ 193 µM) | 0.78 µg/mL (≈ 1.17 µM) | 0.39 µg/mL (≈ 0.587 µM) | – | 0.78 µg/mL (≈ 1.17 µM) | 0.78 µg/mL (≈ 1.17 µM) | 0.78 µg/mL (≈ 1.17 µM) | 0.78 µg/mL (≈ 1.17 µM) | 0.78 µg/mL (≈ 1.17 µM) | 2 µg/mL (≈ 3.01 µM) | > 128 µg/mL | 1 µg/mL (≈ 1.5 µM) | 0.2 µg/mL (≈ 0.301 µM) | 0.2 µg/mL (≈ 0.301 µM) | 0.2 µg/mL (≈ 0.301 µM) | –
3 | CC[C@H]1OC(=O)[C@H](C)[C@@H](O[C@H]2C[C@@](C)(OC)[C@@H](O)[C@H](C)O2)[C@H](C)[C@@H](O[C@@H]2O[C@H](C)C[C@H](N(C)C)[C@H]2O)[C@@]2(C)C[C@@H](C)C(=O)[C@H](C)[C@H]3N(CC(=O)CC=CCO2)C(=O)O[C@]13C [Example 20] | 3.1 µg/mL (≈ 3.63 µM) | 0.2 µg/mL (≈ 0.234 µM) | > 100 µg/mL | > 100 µg/mL | 3.1 µg/mL (≈ 3.63 µM) | 8 µg/mL (≈ 9.38 µM) | 0.78 µg/mL (≈ 0.914 µM) | 0.2 µg/mL (≈ 0.234 µM) | 0.39 µg/mL (≈ 0.457 µM) | 0.2 µg/mL (≈ 0.234 µM) | 12.5 µg/mL (≈ 14.7 µM) | 3.1 µg/mL (≈ 3.63 µM) | 3.1 µg/mL (≈ 3.63 µM) | 3.1 µg/mL (≈ 3.63 µM) | 1 µg/mL (≈ 1.17 µM) | 128 µg/mL (≈ 150 µM) | 0.25 µg/mL (≈ 0.293 µM) | 0.39 µg/mL (≈ 0.457 µM) | 0.2 µg/mL (≈ 0.234 µM) | 0.2 µg/mL (≈ 0.234 µM) | MIC [11]: > 100 µg/mL; MIC [12]: > 100 µg/mL; MIC [17]: 3.1 µg/mL (≈ 3.63 µM); MIC [21]: 0.25 µg/mL (≈ 0.293 µM); MIC [24]: 100 µg/mL (≈ 117 µM); MIC [26]: 25 µg/mL (≈ 29.3 µM); MIC [27]: > 100 µg/mL
4 | CC[C@H]1OC(=O)[C@H](C)C(=O)[C@H](C)[C@@H](O[C@@H]2O[C@H](C)C[C@H](N(C)C)[C@H]2O)[C@@]2(C)C[C@@H](C)C(=O)[C@H](C)[C@H]3N(CCNC(=O)c4ccccc4C=CCO2)C(=O)O[C@]13C [Example 21] | 1.56 µg/mL (≈ 1.99 µM) | 0.2 µg/mL (≈ 0.255 µM) | > 100 µg/mL | > 100 µg/mL | 1.56 µg/mL (≈ 1.99 µM) | 64 µg/mL (≈ 81.6 µM) | 0.39 µg/mL (≈ 0.497 µM) | 0.2 µg/mL (≈ 0.255 µM) | 6.2 µg/mL (≈ 7.91 µM) | 0.39 µg/mL (≈ 0.497 µM) | 1.56 µg/mL (≈ 1.99 µM) | 3.1 µg/mL (≈ 3.95 µM) | 3.1 µg/mL (≈ 3.95 µM) | 3.1 µg/mL (≈ 3.95 µM) | 2 µg/mL (≈ 2.55 µM) | > 128 µg/mL | 0.25 µg/mL (≈ 0.319 µM) | 0.1 µg/mL (≈ 0.128 µM) | 0.1 µg/mL (≈ 0.128 µM) | 0.1 µg/mL (≈ 0.128 µM) | MIC [11]: > 100 µg/mL; MIC [12]: > 100 µg/mL; MIC [17]: 1.56 µg/mL (≈ 1.99 µM); MIC [21]: 0.25 µg/mL (≈ 0.319 µM); MIC [24]: > 100 µg/mL; MIC [26]: 0.78 µg/mL (≈ 0.995 µM); MIC [27]: > 100 µg/mL
